In patent publication US9024021B2, “Diarylacetylene hydrazide containing tyrosine kinase inhibitors” (Sun Pharma Advanced Research Company Ltd., priority 2011, dated 2015):

How the values were obtained:
K562 cells = experiment: In-vitro cell proliferation assay (MTT), K562 cells; format: cell-based; details: for inhibition at 0.01 µM / inhibition at 0.1 µM: Homo sapiens
Method: In-Vitro Cell Proliferation Assay
K562/U937 cells (2×10^4 per well) were incubated with the test compounds/vehicle in a total volume of 200 μL of media at 37° C. with 5% CO2. […] The cells were incubated overnight at 37° C. with 5% CO2. On Day 5 the optical density was measured at 570 nm with 630 nm as reference wavelength. The optical density in the vehicle treated wells was compared with that of the test compound treated wells.

Abl (T315I) (human) = target: T1, Abl (T315I) (human) (Homo sapiens, UniProt P00519, T315I); experiment: Abl-T315I kinase inhibition (in vitro); format: biochemical
T1 construct: purchased Millipore Pharma Services (contract assay, UK pharmacology laboratory)
Method: The kinase assays were performed by Millipore Pharma Services at their UK pharmacology laboratory.
[specific activity approx. 500 cpm/pmol, concentration as required). The reaction is initiated by the addition of the MgATP mix. After incubation for 40 minutes at room temperature, the reaction is stopped by the addition of 5 μL of a 3% phosphoric acid solution. 10 μL of the reaction is then spotted onto a P30 filtermat and washed three times for 5 minutes in 75 mM phosphoric acid and once in methanol prior to drying and scintillation counting.
Within each kinase assay, percent of control values were calculated for each test compound raw data point based on mean minimum (0%) and maximum (100%) controls (n=4 per control) for that kinase (sample−mean minimum/mean maximum−mean minimum×100%). Percent inhibition was calculated from these values (100−mean percent of control).

SMILES | inhibition at 0.01 µM (K562 cells; 10 nM) [%] | inhibition at 0.1 µM (K562 cells; 100 nM) [%] | further results
Cc1ccc(C(=O)NNC(=O)c2c(Cl)cc(Cl)cc2Cl)cc1C#Cc1cnc2ccccc2c1 [I.1, 2,4,6-Trichloro-N′-[4-methyl-3-[2-(3-quinolyl)ethynyl]benzoyl]benzohydrazide] | 101 | 105 | 
Cc1ccc(C(=O)NNC(=O)c2ccc(CN3CCN(C)CC3)c(C(F)(F)F)c2)cc1C#Cc1cnc2ccccc2c1 [I.3, 4-Methyl-N′-[4-[(4-methylpiperazin-1-yl)methyl]-3-(trifluoromethyl)benzoyl]-3-[2-(3-quinolyl)ethynyl]benzohydrazide] | 14.6 | 73.4 | 
Cc1ccc(C(=O)NNC(=O)c2c(Cl)cccc2Cl)cc1C#Cc1cnc2ccccc2c1 [I.5, N′-(2,6-Dichlorobenzoyl)-4-methy1-3-[2-(3-quinolyl)ethynyl]benzohydrazide] |  |  | % Inhibition of cell proliferation in K562 cells (K562 cells; 10 nM): 99.8%; % Inhibition of cell proliferation in K562 cells (K562 cells; 100 nM): 99.9%; % Inhibition of Abl-T315I kinase (Abl (T315I) (human); 3 nM): 30.0%; % Inhibition of Abl-T315I kinase (Abl (T315I) (human); 30 nM): 83.0%
Cc1cn(-c2cc(C(=O)NNC(=O)c3ccc(C)c(C#Cc4cnc5ccccc5c4)c3)cc(C(F)(F)F)c2)cn1 [I.7, 4-Methyl-N′-[3-(4-methylimidazol-1-yl)-5-(trifluoromethyl)benzoyl]-3-[2-(3-quinolyl)ethynyl]benzohydrazide] | 12.6 | 43.1 | 
Cc1cc(C)c(C(=O)NNC(=O)c2ccc(C)c(C#Cc3cnc4ccccc4c3)c2)c(C)c1 [I.8, 2,4,6-Trimethyl-N′-[4-methyl-3-[2-(3-quinolyl)ethynyl]benzoyl]benzohydrazide] | 53.6 | 80.3 | 
Cc1ccc(C(=O)NNC(=O)c2c(C)cccc2Br)cc1C#Cc1cnc2ccccc2c1 [I.11, N′-(2-Bromo-6-methylbenzoyl)-4-methyl-3-[2-(3-quinolyl)ethynyl]benzohydrazide] | 78.9 | 79.9 | 
COc1cccc(C)c1C(=O)NNC(=O)c1ccc(C)c(C#Cc2cnc3ccccc3c2)c1 [I.13, N′-(2-Methoxy-6-methylbenzoyl)-4-methyl-3-[2-(3-quinolyl)ethynyl]benzohydrazide] | 52.2 | 73.5 | 
Cc1ccc(C(=O)NNC(=O)c2c(C)cccc2F)cc1C#Cc1cnc2ccccc2c1 [I.14, N′-(2-Fluoro-6-methylbenzoyl)-4-methyl-3-[2-(3-quinolyl)ethynyl]benzohydrazide] | 68.5 | 71.7 | inhibition at 0.003 µM (Abl (T315I) (human); 3 nM): 1%; inhibition at 0.03 µM (Abl (T315I) (human); 30 nM): 60%
Cc1ccc(C(=O)NNC(=O)c2c(Cl)cc(Cl)cc2Cl)cc1C#Cc1cnc2cnccn12 [I.15, 2,4,6-Trichloro-N′-[3-[2-(2-imidazo[1,2-a]pyrazin-3-yl)ethynyl]-4-methylbenzoyl]benzohydrazide] |  |  | % Inhibition of cell proliferation in K562 cells (K562 cells; 10 nM): 82.8%; % Inhibition of cell proliferation in K562 cells (K562 cells; 100 nM): 85.0%
Cc1ccc(C(=O)NNC(=O)c2c(C)cccc2Cl)cc1C#Cc1cnc2ccccn12 [I.19, N′-(2-Chloro-6-methylbenzoyl)-3-[2-(imidazo[1,2-a]pyridin-3-yl)ethynyl]-4-methylbenzohydrazide] | 60.2 | 80.2 | 
Cc1cccc(Cl)c1C(=O)NNC(=O)c1ccc(F)c(C#Cc2cnc3ccccc3c2)c1 [I.21, N′-(2-Cchloro-6-methylbenzoyl)-4-fluoro-3-[2-(3-quinolyl)ethynyl]benzohydrazide] |  |  | % Inhibition of cell proliferation in K562 cells (K562 cells; 10 nM): 40.9%; % Inhibition of cell proliferation in K562 cells (K562 cells; 100 nM): 98.6%
Cc1ccc(C(=O)NNC(=O)c2c(F)cccc2I)cc1C#Cc1cnc2ccccc2c1 [I.23, N′-(2-Fluoro-6-iodobenzoyl)-4-methyl-3-[2-(3-quinolyl)ethynyl]benzohydrazide] | 68.1 | 72.6 | 
Cc1ccc(C(=O)NNC(=O)c2c(Cl)cccc2C(F)(F)F)cc1C#Cc1cnc2ccccc2c1 [I.24, N′-[2-Chloro-6-(trifluoromethyl)benzoyl]-4-methyl-3-[2-(3-quinolyl)ethynyl]benzohydrazide] | 71.1 | 71.3 | 
Cc1ccc(C(=O)NNC(=O)c2c(F)cccc2C(F)(F)F)cc1C#Cc1cnc2ccccc2c1 [I.25, N′-[2-Fluoro-6-(trifluoromethyl)benzoyl]-4-methyl-3-[2-(3-quinolyl)ethynyl]benzohydrazide] | 71.5 | 73 | inhibition at 0.003 µM (Abl (T315I) (human); 3 nM): 26%; inhibition at 0.03 µM (Abl (T315I) (human); 30 nM): 65%
Cc1ccc(C(=O)NNC(=O)c2c(C)cccc2Cl)cc1C#Cc1cnc2ccc(Cl)cc2n1 [I.26, N′-(2-Chloro-6-methylbenzoyl)-3-[2-(7-chloroquinoxalin-2-yl)ethynyl]-4-methylbenzohydrazide] | 71.8 | 78.2 | inhibition at 0.003 µM (Abl (T315I) (human); 3 nM): 3%; inhibition at 0.03 µM (Abl (T315I) (human); 30 nM): 41%
Cc1ccc(C(=O)NNC(=O)c2c(C)cccc2Cl)cc1C#Cc1cnc2ccccc2n1 [I.27, N′-(2-Chloro-6-methylbenzoyl)-4-methyl-3-[2-(quinoxalin-2-yl)ethynyl]benzohydrazide] | 79.3 | 75.3 | inhibition at 0.003 µM (Abl (T315I) (human); 3 nM): 0%; inhibition at 0.03 µM (Abl (T315I) (human); 30 nM): 55%
Cc1ccc(C(=O)NNCc2cccnc2Cl)cc1C#Cc1cnc2ccccc2c1 [I.29, N′-(2-Chloronicotinyl)-4-methyl-3-[2-(3-quinolyl)ethynyl]benzohydrazide] | 27.7 | 78.5 | 
Cc1ccc(C(=O)NNC(=O)c2ccccc2C)cc1C#Cc1cnc2ccccc2c1 [I.30, N′-(2-Methylbenzoyl)-4-methyl-3-[2-(3-quinolyl)ethynyl]benzohydrazide] | 49 | 85 | 
CCc1cccc(Cl)c1C(=O)NNC(=O)c1ccc(C)c(C#Cc2cnc3ccccc3c2)c1 [I.31, N′-(2-Chloro-6-ethylbenzoyl)-4-methyl-3-[2-(3-quinolyl)ethynyl]benzohydrazide] | 74.2 | 81.4 | 
Cc1ccc(C(=O)NNC(=O)c2c(Cl)cccc2C(C)C)cc1C#Cc1cnc2ccccc2c1 [I.32, N′-(2-Chloro-6-isopropylbenzoyl)-4-methyl-3-[2-(3-quinolyl)ethynyl]benzohydrazide] | 50.6 | 81.9 | 
COc1cccc(Cl)c1C(=O)NNC(=O)c1ccc(C)c(C#Cc2cnc3ccccc3c2)c1 [I.34, N′-(2-Chloro-6-methoxybenzoyl)-4-methyl-3-[2-(3-quinolyl)ethynyl]benzohydrazide] | 75.5 | 82.2 | 
Cc1ccc(C(=O)NNC(=O)c2c(C)cccc2[N+](=O)[O-])cc1C#Cc1cnc2ccccc2c1 [I.36, N′-(2-Methyl-6-nitrobenzoyl)-4-methyl-3-[2-(3-quinolyl)ethynyl]benzohydrazide] | 75.9 | 77.3 | 
Cc1ccc(C(=O)NNC(=O)c2c(Cl)cccc2I)cc1C#Cc1cnc2ccccc2c1 [I.39, N′-(2-Chloro-6-iodobenzoyl)-4-methyl-3-[2-(3-quinolyl)ethynyl]benzohydrazide] | 77.1 | 80.5 | 
Cc1ccc(C(=O)NNC(=O)c2ccccc2Cl)cc1C#Cc1cnc2ccccc2c1 [I.40, N′-(2-Chlorobenzoyl)-4-methyl-3-[2-(3-quinolyl)ethynyl]benzohydrazide] | 59.9 | 84.3 | 
Cc1ccc(C(=O)NNC(=O)c2c(Cl)cccc2Cl)cc1C#Cc1cnc2cccnn12 [I.41, N′-(2,6-Dichlorobenzoyl)-4-methyl-3-[(imidazo(1,2-b)pyridazin-3-yl)ethynyl]benzohydrazide] | 82.5 | 81.1 | 
Cc1ccc2ncc(C#Cc3cc(C(=O)NNC(=O)c4c(C)cccc4Cl)ccc3C)cc2c1 [I.44, N′-(2-Chloro-6-methylbenzoyl)-4-methyl-3-[2-(6-methyl-3-quinolyl)ethynyl]benzohydrazide] | 77.7 | 84.4 | 
Cc1ccc(C(=O)N(C)NC(=O)c2c(C)cccc2Cl)cc1C#Cc1cnc2ccccc2c1 [I.45, N-Methyl-N′-(2-Chloro-6-methylbenzoyl)-4-methyl-3-[2-(3-quinolyl)ethynyl]benzohydrazide] | 10.2 | 78.2 | 
Cc1ccc(C(=O)NNC(=O)c2c(C)cccc2C)cc1C#Cc1cnc2ccccc2c1 [I.46, N′-(2,6-Dimethylbenzoyl)-4-methyl-3-[2-(3-quinolyl)ethynyl]benzohydrazide] | 77.9 | 83.9 | 
Cc1ccc(C(=O)NNC(=O)c2c(C)cccc2Cl)cc1C#Cc1cnc2ccc(Cl)cc2c1 [I.50, N′-(2-Chloro-6-methylbenzoyl)-4-methyl-3-[2-(6-chloro-3-quinolyl)ethynyl]benzohydrazide] | 69.6 | 75 | 
Cc1cccc(Cl)c1C(=O)NNC(=O)c1cccc(C#Cc2cnc3ccccc3c2)n1 [I.60, N′-(2-Chloro-6-methylbenzoyl)-6-[2-(3-quinolyl)ethynyl]pyridine-2-carboxylic acid hydrazide] | 8.6 | 8.5 | 
